Laboratory results reported in patent US9353082B2, “Pharmaceutical compounds” (BIAL—PORTELA & CA, S.A., priority 2008, dated 2016).

target: T1, FAAH (Rattus norvegicus, UniProt P97612); test: In vitro FAAH activity in rat brain membranes, 3H-AEA substrate, % of control; format: biochemical, Wistar rats; conditions: 100 nM test compound, low value = strong inhibitor
T1 construct: Frozen brains (without cerebellum) from Wistar rats were used; from tissue; host or cells: Wistar rat brain (without cerebellum), washed membrane pellets
T1 sequence (P97612 1-579): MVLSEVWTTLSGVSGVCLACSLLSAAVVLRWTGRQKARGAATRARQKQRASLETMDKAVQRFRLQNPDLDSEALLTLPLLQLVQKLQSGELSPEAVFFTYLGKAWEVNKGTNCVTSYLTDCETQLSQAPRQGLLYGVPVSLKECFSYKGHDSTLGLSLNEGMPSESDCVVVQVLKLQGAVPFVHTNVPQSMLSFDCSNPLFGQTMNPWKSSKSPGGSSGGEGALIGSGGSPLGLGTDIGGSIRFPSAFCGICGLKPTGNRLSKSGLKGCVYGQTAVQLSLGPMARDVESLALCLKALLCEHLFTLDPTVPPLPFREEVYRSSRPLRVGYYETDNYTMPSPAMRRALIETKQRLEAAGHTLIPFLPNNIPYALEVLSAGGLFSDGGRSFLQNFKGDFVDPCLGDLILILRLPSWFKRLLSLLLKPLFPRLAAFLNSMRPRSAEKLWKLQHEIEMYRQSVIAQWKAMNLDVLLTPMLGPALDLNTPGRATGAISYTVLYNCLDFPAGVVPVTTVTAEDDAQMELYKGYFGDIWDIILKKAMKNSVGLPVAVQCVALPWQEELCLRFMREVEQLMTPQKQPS
How it was run: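 FAAH activity measured as 3H-ethanolamine released from 2 μM [3H]AEA over 10 min by rat brain membrane preparation, after 15 min 37 °C preincubation with test compound at 10 or 0.1 μM. Charcoal-separated supernatant scintillation-counted; values expressed as % of control minus no-protein blank.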

SMILES | In Vitro FAAH activity, 100 nM
C[C@@H]1CN(C(=O)n2nnc3ccccc32)C[C@H](C)O1 [Compound 194, (1H-benzo[d][1,2,3]triazol-1-yl)((2S,6R)-2,6-dimethylmorpholino)methanone] | 64.2 % of control
O=C(N1CCC(CCCc2ccccc2)CC1)n1cnc(-c2ccc(Cl)cc2)c1 [Compound 197, (4-(4-chlorophenyl)-1H-imidazol-1-yl)(4-(3-phenylpropyl)piperidin-1-yl)methanone] | 0.3 % of control
O=C(N1CCC2(CC1)OCCO2)n1cnc(-c2ccc(Cl)c(Cl)c2)c1 [Compound 198, (4-(3,4-dichlorophenyl)-1H-imidazol-1-yl)(1,4-dioxa-8-azaspiro[4.5]decan-8-yl)methanone] | 33 % of control
CN(C(=O)n1cnc(-c2cccc(OCCN3CCNCC3)c2)c1)c1ccccc1.Cl.Cl [Compound 200, N-methyl-N-phenyl-4-(3-(2-(piperazin-1-yl)ethoxy)phenyl)-1H-imidazole-1-carboxamide dihydrochloride] | 100.1 % of control
O=C(N1CCN(C2CCCCC2)CC1)n1cnc(-c2ccc(F)c(F)c2)c1 [Compound 201, (4-cyclohexylpiperazin-1-yl)(4-(3,4-difluorophenyl)-1H-imidazol-1-yl)methanone] | 0.3 % of control
CCN(CCOCc1ccccc1)C(=O)n1nnc2ccccc21 [Compound 202, N-(2-(benzyloxy)ethyl)-N-ethyl-1H-benzo[d][1,2,3]triazole-1-carboxamide] | 0.1 % of control
O=C(N1CCC2(CC1)OCCO2)n1cnc(-c2ccc(Cl)cc2)n1 [Compound 204, (3-(4-chlorophenyl)-1H-1,2,4-triazol-1-yl)(1,4-dioxa-8-azaspiro[4.5]decan-8-yl)methanone] | 15.8 % of control
COc1ccc(-c2ncn(C(=O)N3CCC(CCCc4ccccc4)CC3)n2)cc1 [Compound 205, (3-(4-methoxyphenyl)-1H-1,2,4-triazol-1-yl)(4-(3-phenylpropyl)piperidin-1-yl)methanone] | 0.2 % of control
O=C(N1CCN(c2ccccc2)CC1)n1cnc(-c2cccc3ccccc23)n1 [Compound 206, (3-(naphthalen-1-yl)-1H-1,2,4-triazol-1-yl)(4-phenylpiperazin-1-yl)methanone] | 3.3 % of control
NC(=O)c1ccc(Oc2cccc(-c3ncn(C(=O)N4CCc5ccccc5C4)n3)c2)cc1 [Compound 207, 4-(3-(1-(1,2,3,4-tetrahydroisoquinoline-2-carbonyl)-1H-1,2,4-triazol-3-yl)phenoxy)benzamide] | 31.6 % of control
NC(=O)c1ccc(Oc2cccc(-c3ncn(C(=O)N4CCOCC4)n3)c2)cc1 [Compound 210, 4-(3-(1-(morpholine-4-carbonyl)-1H-1,2,4-triazol-3-yl)phenoxy)benzamide] | 73.3 % of control
COc1ccc(-c2ncn(C(=O)N3CCN(c4ccc(F)cc4)CC3)n2)cc1 [Compound 211, (4-(4-fluorophenyl)piperazin-1-yl)(3-(4-methoxyphenyl)-1H-1,2,4-triazol-1-yl)methanone] | 1.9 % of control
Cl.O=C(N1CCN(C2CCCCC2)CC1)n1cnc(-c2ccc(Cl)cc2)n1 [Compound 212, (3-(4-chlorophenyl)-1H-1,2,4-triazol-1-yl)(4-cyclohexylpiperazin-1-yl)methanone hydrochloride] | 0.8 % of control
O=C(N1CCSC1)n1cnc(-c2ccc(Cl)cc2)n1 [Compound 214, (3-(4-chlorophenyl)-1H-1,2,4-triazol-1-yl)(thiazolidin-3-yl)methanone] | 23.7 % of control
O=C(N1CCSC1)n1cnc(-c2ccc(F)c(F)c2)c1 [Compound 215, (4-(3,4-difluorophenyl)-1H-imidazol-1-yl)(thiazolidin-3-yl)methanone] | 16.7 % of control
O=C(N1CCCC1)n1cnc(-c2ccc(Cl)c(Cl)c2)c1 [Compound 218, (4-(3,4-dichlorophenyl)-1H-imidazol-1-yl)(pyrrolidin-1-yl)methanone] | 31.6 % of control
O=C(N1CCN(c2ccc(F)cc2)CC1)n1cnc(-c2ccc(Cl)cc2)c1 [Compound 223, (4-(4-chlorophenyl)-1H-imidazol-1-yl)(4-(4-fluorophenyl)piperazin-1-yl)methanone] | 1.1 % of control
Br.CN(C(=O)n1cnc(-c2ccc(OCCN3CCCCC3)cc2)c1)c1ccccc1 [Compound 224, N-methyl-N-phenyl-4-(4-(2-(piperidin-1-yl)ethoxy)phenyl)-1H-imidazole-1-carboxamide hydrobromide] | 90 % of control

SMILES | In Vitro FAAH activity, 100 nM
COc1cc(-c2cn(C(=O)N3COCC3(C)C)cn2)ccc1OCc1ccccc1 [Compound 225, (4-(4-(benzyloxy)-3-methoxyphenyl)-1H-imidazol-1-yl)(4,4-dimethyloxazolidin-3-yl)methanone] | 79 % of control
CC1OCCN1C(=O)n1cnc(-c2ccccc2)c1 (stereo not drawn) [Compound 227, (2-methyloxazolidin-3-yl)(4-phenyl-1H-imidazol-1-yl)methanone] | 64.7 % of control
CN(C(=O)n1cnc(-c2ccccc2)c1)C12CC3CC(CC(C3)C1)C2 [Compound 229] | 99.2 % of control
CN(C(=O)n1cnc(-c2ccc(OCCN3CCOCC3)cc2)c1)c1ccccc1.Cl [Compound 230, N-methyl-4-(4-(2-morpholinoethoxy)phenyl)-N-phenyl-1H-imidazole-1-carboxamide hydrochloride] | 96.1 % of control
O=C(OCCN(C(=O)n1cnc(-c2ccccc2)c1)C1=CCCC1)n1cnc(-c2ccccc2)c1 [Compound 234, 2-(N-cyclopentenyl-4-phenyl-1H-imidazole-1-carboxamido)ethyl 4-phenyl-1H-imidazole-1-carboxylate] | 78.2 % of control
O=C(NC12CC3CC(CC(C3)C1)C2)n1cnc(-c2ccccc2)c1 [Compound 237] | 91.6 % of control
O=C(N1CCOC1c1ccccc1)n1cnc(-c2ccc(Cl)cc2)c1 (stereo not drawn) [Compound 241, (4-(4-chlorophenyl)-1H-imidazol-1-yl)(2-phenyloxazolidin-3-yl)methanone] | 76.5 % of control
CN(C(=O)n1nnc2ccc(O)cc21)C1CCCCC1 [Compound 242, N-cyclohexyl-6-hydroxy-N-methyl-1H-benzo[d][1,2,3]triazole-1-carboxamide] | 0 % of control
CC1(C)COCN1C(=O)n1nnc2cc(-c3cccc(C(N)=O)c3)ccc21 [Compound 243, 3-(1-(4,4-dimethyloxazolidine-3-carbonyl)-1H-benzo[d][1,2,3]triazol-5-yl)benzamide] | 39.7 % of control
CN(C(=O)n1cnc(-c2ccc(Cl)cc2)c1)C1CCCC1 [Compound 244, 4-(4-chlorophenyl)-N-cyclopentyl-N-methyl-1H-imidazole-1-carboxamide] | 5.4 % of control
CN(C(=O)n1cnc(-c2cccc(-c3cccc(F)c3)c2)c1)C1CCCCC1 [Compound 246, N-cyclohexyl-4-(3′-fluorobiphenyl-3-yl)-N-methyl-1H-imidazole-1-carboxamide] | 2.9 % of control
CC(C)N(Cc1ccccc1)C(=O)n1cnc(-c2ccc(Cl)cc2)c1 [Compound 249, N-benzyl-4-(4-chlorophenyl)-N-isopropyl-1H-imidazole-1-carboxamide] | 95.8 % of control
CC(C)(C)N(Cc1ccccc1)C(=O)n1cnc(-c2ccccc2)c1 [Compound 251, N-benzyl-N-tert-butyl-4-phenyl-1H-imidazole-1-carboxamide] | 91.7 % of control
CC(C)(C)N(Cc1ccccc1)C(=O)n1cnc(-c2ccc(Cl)cc2)c1 [Compound 252, N-benzyl-N-tert-butyl-4-(4-chlorophenyl)-1H-imidazole-1-carboxamide] | 83.6 % of control
O=C(N1CCS(=O)(=O)C1)n1cnc(-c2ccc(Cl)cc2)n1 [Compound 253, 3-(4-chlorophenyl)-1-[(1,1-dioxido-1,3-thiazolidin-3-yl)carbonyl]-1H-1,2,4-triazole] | 107.7 % of control
COc1cccc(-c2cn(C(=O)N(Cc3ccccc3)C(C)C)cn2)c1 [Compound 255, N-benzyl-N-isopropyl-4-(3-methoxyphenyl)-1H-imidazole-1-carboxamide] | 96.7 % of control
COc1cccc(-c2cn(C(=O)N(Cc3ccccc3)C(C)(C)C)cn2)c1 [Compound 256, N-benzyl-N-tert-butyl-4-(3-methoxyphenyl)-1H-imidazole-1-carboxamide] | 105.6 % of control
CCOc1cccc(-c2cccc(-c3cn(C(=O)N(C)C4CCCCC4)cn3)c2)c1 [Compound 258, N-cyclohexyl-4-(3'-ethoxybiphenyl-3-yl)-N-methyl-1H-imidazole-1-carboxamide] | 39.9 % of control
